Values joined by “and” are separate entries in the source; they are usually repeats but may differ in a detail not shown here. Equal values may be shown once.
Tested on: 327498-153-R-J2-PDC complex spheroid growth, % test/control
Test: Anticancer human tumor 327498-153-R-J2-PDC patient-derived uterine carcinosarcoma cell line growth inhibition [Asc]
Conditions: for viability, T/C: stronger effect = lower value
Method in brief: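 Concentration series start at each agent's clinical Cmax, or at 10 microM when none is established, and drop in half-log steps; agents are applied alone or together to complex spheroids built with HUVEC and hMSC.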

[1] = curve of first compound, second compound 0.1 µM
[2] = curve of first compound, second compound 0.316 µM
[3] = curve of first compound, second compound 1 µM
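Also: spheroids exposed to compound for 7 days after 3 days of growth.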
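For viability, T/C in this document: 100% = DMSO vehicle control wells.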

## Cn1ncnc1[C@H]1c2n[nH]c(=O)c3cc(F)cc(c23)N[C@@H]1c1ccc(F)cc1 + CCN1C(C(=O)NC23CCC(C(=O)O)(CC2)CC3)C(c2cccc(Cl)c2F)C2(C(=O)Nc3cc(Cl)ccc32)C12CCCCC2
Curve of first compound, second compound 0.03 µM
  IC50: 6.09 nM
Curve of first compound, second compound 0.0949 µM
  IC50: 2.66 nM
Curve of first compound, second compound 0.3 µM
  IC50: < 0.316 nM
Curve of first compound, second compound 0.949 µM
  IC50: < 0.316 nM
Curve of first compound, second compound 3 µM
  IC50: < 0.316 nM
Second compound 0.03 µM, first compound 0.000316 µM
  viability, T/C: 99.9%
Second compound 0.03 µM, first compound 0.001 µM
  viability, T/C: 90%
Second compound 0.03 µM, first compound 0.00316 µM
  viability, T/C: 70.8%
Second compound 0.03 µM, first compound 0.01 µM
  viability, T/C: 34.8%
Second compound 0.03 µM, first compound 0.0316 µM
  viability, T/C: 12.6%
Second compound 0.03 µM, first compound 0.1 µM
  viability, T/C: 6.28%
Second compound 0.0949 µM, first compound 0.000316 µM
  viability, T/C: 75.8%
Second compound 0.0949 µM, first compound 0.001 µM
  viability, T/C: 73.4%
Second compound 0.0949 µM, first compound 0.00316 µM
  viability, T/C: 45%
Second compound 0.0949 µM, first compound 0.01 µM
  viability, T/C: 17.4%
Second compound 0.0949 µM, first compound 0.0316 µM
  viability, T/C: 7.19%
Second compound 0.0949 µM, first compound 0.1 µM
  viability, T/C: 4.65%
Second compound 0.3 µM, first compound 0.000316 µM
  viability, T/C: 45.2%
Second compound 0.3 µM, first compound 0.001 µM
  viability, T/C: 28.2%
Second compound 0.3 µM, first compound 0.00316 µM
  viability, T/C: 16%
Second compound 0.3 µM, first compound 0.01 µM
  viability, T/C: 6.36%
Second compound 0.3 µM, first compound 0.0316 µM
  viability, T/C: 3.88%
Second compound 0.3 µM, first compound 0.1 µM
  viability, T/C: 3.44%
Second compound 0.949 µM, first compound 0.000316 µM
  viability, T/C: 5.73%
Second compound 0.949 µM, first compound 0.001 µM
  viability, T/C: 7.29%
Second compound 0.949 µM, first compound 0.00316 µM
  viability, T/C: 3.58%
Second compound 0.949 µM, first compound 0.01 µM
  viability, T/C: 1.98%
Second compound 0.949 µM, first compound 0.0316 µM
  viability, T/C: 2.28%
Second compound 0.949 µM, first compound 0.1 µM
  viability, T/C: 1.93%
Second compound 3 µM, first compound 0.000316 µM
  viability, T/C: 3.13%
Second compound 3 µM, first compound 0.001 µM
  viability, T/C: 8.85%
Second compound 3 µM, first compound 0.00316 µM
  viability, T/C: 2.79%
Second compound 3 µM, first compound 0.01 µM
  viability, T/C: 2.59%
Second compound 3 µM, first compound 0.0316 µM
  viability, T/C: 1.49%
Second compound 3 µM, first compound 0.1 µM
  viability, T/C: 2.35%

## Cn1ncnc1[C@H]1c2n[nH]c(=O)c3cc(F)cc(c23)N[C@@H]1c1ccc(F)cc1
Compound 0.000316 µM
  viability, T/C: 95.8% and 103% and 101%
Compound 0.001 µM
  viability, T/C: 93.7% and 105% and 94%
Compound 0.00316 µM
  viability, T/C: 88.7% and 110% and 91.1%
Compound 0.01 µM
  viability, T/C: 61.8% and 77.4% and 65.8%
Compound 0.0316 µM
  viability, T/C: 28.1% and 33.8% and 26.1%
Compound 0.1 µM
  viability, T/C: 12.9% and 16.1% and 13.9%
Curve of compound
  IC50: 15.1 nM and 20.5 nM and 15.8 nM

## O=C(c1ccc(F)c(F)c1Nc1ccc(I)cc1F)N1CC(O)([C@@H]2CCCCN2)C1 + Cc1c(S(C)(=O)=O)c(-c2cc(F)cc(N3CCN(c4ccc(NS(=O)(=O)c5ccc(NC(CCN6CCC(C(=O)OCCCP(=O)(O)O)CC6)CSc6ccccc6)c(S(=O)(=O)C(F)(F)F)c5)cc4)CC3)c2)c(-c2ccc(Cl)cc2)n1C(C)C
[1]
  IC50: 277 nM
[2]
  IC50: 215 nM
[3]
  IC50: 196 nM
Curve of first compound, second compound 3.16 µM
  IC50: 146 nM
Curve of first compound, second compound 10 µM
  IC50: 458 nM
Second compound 0.1 µM, first compound 0.00316 µM
  viability, T/C: 92.1%
Second compound 0.1 µM, first compound 0.01 µM
  viability, T/C: 96.2%
Second compound 0.1 µM, first compound 0.0316 µM
  viability, T/C: 81.7%
Second compound 0.1 µM, first compound 0.1 µM
  viability, T/C: 67.3%
Second compound 0.1 µM, first compound 0.316 µM
  viability, T/C: 49%
Second compound 0.1 µM, first compound 1 µM
  viability, T/C: 18.4%
Second compound 0.316 µM, first compound 0.00316 µM
  viability, T/C: 91.5%
Second compound 0.316 µM, first compound 0.01 µM
  viability, T/C: 80.4%
Second compound 0.316 µM, first compound 0.0316 µM
  viability, T/C: 76.9%
Second compound 0.316 µM, first compound 0.1 µM
  viability, T/C: 62.9%
Second compound 0.316 µM, first compound 0.316 µM
  viability, T/C: 44.1%
Second compound 0.316 µM, first compound 1 µM
  viability, T/C: 14.6%
Second compound 1 µM, first compound 0.00316 µM
  viability, T/C: 98.6%
Second compound 1 µM, first compound 0.01 µM
  viability, T/C: 80.6%
Second compound 1 µM, first compound 0.0316 µM
  viability, T/C: 74.5%
Second compound 1 µM, first compound 0.1 µM
  viability, T/C: 58.7%
Second compound 1 µM, first compound 0.316 µM
  viability, T/C: 49%
Second compound 1 µM, first compound 1 µM
  viability, T/C: 12.9%
Second compound 3.16 µM, first compound 0.00316 µM
  viability, T/C: 91.5%
Second compound 3.16 µM, first compound 0.01 µM
  viability, T/C: 84.9%
Second compound 3.16 µM, first compound 0.0316 µM
  viability, T/C: 75.1%
Second compound 3.16 µM, first compound 0.1 µM
  viability, T/C: 56.4%
Second compound 3.16 µM, first compound 0.316 µM
  viability, T/C: 35.9%
Second compound 3.16 µM, first compound 1 µM
  viability, T/C: 15.4%
Second compound 10 µM, first compound 0.00316 µM
  viability, T/C: 170%
Second compound 10 µM, first compound 0.01 µM
  viability, T/C: 167%
Second compound 10 µM, first compound 0.0316 µM
  viability, T/C: 131%
Second compound 10 µM, first compound 0.1 µM
  viability, T/C: 97.9%
Second compound 10 µM, first compound 0.316 µM
  viability, T/C: 70.8%
Second compound 10 µM, first compound 1 µM
  viability, T/C: 17.1%

## C#Cc1c(F)ccc2cc(O)cc(-c3ncc4c(N5CC6CCC(C5)N6)nc(OCC56CCCN5CC(F)C6)nc4c3F)c12 (centres undefined)
Compound 0.0316 µM
  viability, T/C: 108% and 96.6% and 89.6%
Compound 0.1 µM
  viability, T/C: 101% and 100% and 94%
Compound 0.316 µM
  viability, T/C: 101% and 82.7% and 90.7%
Compound 1 µM
  viability, T/C: 82.9% and 72.4% and 78.3%
Compound 3.16 µM
  viability, T/C: 69.9% and 64.9% and 68.1%
Compound 10 µM
  viability, T/C: 58% and 47.4% and 53.3%
Curve of compound
  IC50: > 10000 nM and 8780 nM

## Cc1nc(N2CCC3(CC2)COC(C)C3N)c(CO)nc1Sc1ccnc(N)c1Cl (centres undefined) + CNC(C)C(=O)NC1CN(S(=O)(=O)c2cccc(S(=O)(=O)N3CCC4CCC(C(=O)NC(c5ccccc5)c5ccccc5)N4C(=O)C(NC(=O)C(C)NC)C3)c2)CCC2CCC(C(=O)NC(c3ccccc3)c3ccccc3)N2C1=O
Curve of first compound, second compound 0.01 µM
  IC50: > 3000 nM
Curve of first compound, second compound 0.0316 µM
  IC50: 1550 nM
[1]
  IC50: > 3000 nM
[2]
  IC50: > 3000 nM
[3]
  IC50: > 3000 nM
Second compound 0.01 µM, first compound 0.00949 µM
  viability, T/C: 102%
Second compound 0.01 µM, first compound 0.03 µM
  viability, T/C: 101%
Second compound 0.01 µM, first compound 0.0949 µM
  viability, T/C: 82.3%
Second compound 0.01 µM, first compound 0.3 µM
  viability, T/C: 71.6%
Second compound 0.01 µM, first compound 0.949 µM
  viability, T/C: 66.8%
Second compound 0.01 µM, first compound 3 µM
  viability, T/C: 48.7%
Second compound 0.0316 µM, first compound 0.00949 µM
  viability, T/C: 95.7%
Second compound 0.0316 µM, first compound 0.03 µM
  viability, T/C: 90.2%
Second compound 0.0316 µM, first compound 0.0949 µM
  viability, T/C: 81.6%
Second compound 0.0316 µM, first compound 0.3 µM
  viability, T/C: 72.2%
Second compound 0.0316 µM, first compound 0.949 µM
  viability, T/C: 53.1%
Second compound 0.0316 µM, first compound 3 µM
  viability, T/C: 44%
Second compound 0.1 µM, first compound 0.00949 µM
  viability, T/C: 97.4%
Second compound 0.1 µM, first compound 0.03 µM
  viability, T/C: 92.7%
Second compound 0.1 µM, first compound 0.0949 µM
  viability, T/C: 87.8%
Second compound 0.1 µM, first compound 0.3 µM
  viability, T/C: 68.5%
Second compound 0.1 µM, first compound 0.949 µM
  viability, T/C: 56.2%
Second compound 0.1 µM, first compound 3 µM
  viability, T/C: 59.9%
Second compound 0.316 µM, first compound 0.00949 µM
  viability, T/C: 96.1%
Second compound 0.316 µM, first compound 0.03 µM
  viability, T/C: 93.5%
Second compound 0.316 µM, first compound 0.0949 µM
  viability, T/C: 91%
Second compound 0.316 µM, first compound 0.3 µM
  viability, T/C: 75.8%
Second compound 0.316 µM, first compound 0.949 µM
  viability, T/C: 63.7%
Second compound 0.316 µM, first compound 3 µM
  viability, T/C: 50%
Second compound 1 µM, first compound 0.00949 µM
  viability, T/C: 94.3%
Second compound 1 µM, first compound 0.03 µM
  viability, T/C: 87.7%
Second compound 1 µM, first compound 0.0949 µM
  viability, T/C: 78.6%
Second compound 1 µM, first compound 0.3 µM
  viability, T/C: 72.3%
Second compound 1 µM, first compound 0.949 µM
  viability, T/C: 59.8%
Second compound 1 µM, first compound 3 µM
  viability, T/C: 52.1%

— PubChem BioAssay AID1963424 (Molecular Pharmacology Branch, DTP, NCI, 2024)
